Laboratory results from patent US5744485A, “Carbamates and ureas as modifiers of multi-drug resistance” (Vertex Pharmaceuticals Incorporated, priority 1995, dated 1998).

Experiments:
[1] = tested on: L1210 mouse leukemia cells transformed with the pHaMDR1/A retrovirus carrying a MDR1 cDNA (L1210VMDRC.06); test: MDR sensitization assay: reversal of MDR to doxorubicin in L1210VMDRC.06 cells (MTT or XTT viability, 3 days) (Table 1); conditions: for MDR Ratio 1.0 μM Cpd. / MDR Ratio (2.5 μM): mouse, l1210vmdrc.06 cells, 72 h
Method: To assay the ability of the compounds according to this invention to increase the antiproliferative activity of a drug, cell lines which are known to be resistant to a particular drug may be used. These cell lines include, but are not limited to, the L1210, P388D, CHO and MCF7 cell lines. Alternatively, resistant cell lines may be developed. The cell line is exposed to the drug to which it is resistant, or to the test compound; cell viability is then measured and compared to the viability of cells which are exposed to the drug in the presence of the test compound.
We have carried out assays using L1210 mouse leukemia cells transformed with the pHaMDR1/A retrovirus carrying a MDR1 cDNA, as described by Pastan et al., Proc. Natl. Acad. Sci., Vol. 85, 4486-4490 (1988). The resistant line, labelled L1210VMDRC.06, was obtained from Dr. M. M. Gottesman of the National Cancer Institute.
Multi-drug resistance assays were conducted by plating cells (2×10^3, 1×10^4, or 5×10^4 cells/well) in 96 well microtiter plates and exposing them to a concentration range of doxorubicin (50 nM-10 μM) in the presence or absence of multi-drug resistance modifier compounds ("MDR inhibitors") of this invention (1, 2.5 or 10 μM) as described in Ford et al., Cancer Res., Vol. 50, 1748-1756. (1990). After culture for 3 days, the viability of cells was quantitated using MTT (Mossman) or XTT dyes to assess mitochondrial function. All determinations were made in replicates of 4 or 8. Also see, Mossman T., J. Immunol. Methods, Vol. 65, 55-63 (1983).
Results were determined by comparison of the IC50 for doxorubicin alone to the IC50 for doxorubicin+MDR inhibitor. An MDR ratio was calculated (IC50 Dox/IC50 Dox+Inhibitor) and the integer value used for comparison of compound potencies.

[2] = tested on: HL60/ADR cells; test: Inhibition of MRP-mediated MDR: reversal of MDR to doxorubicin in HL60/ADR cells (XTT viability, 3 days) (Table 2); format: cell-based; conditions: Homo sapiens, 72 h, read-out: IC50 Dox alone
Method: We plated HL60/ADR cells in 96 well microtiter plates (4×10^4 cells/well). The cells were then exposed to various concentrations of doxorubicin (50 nM to 10 μM) in the presence or absence of various compounds of this invention at various concentrations (0.5-10 μM). After culturing the cells for 3 days, their viability was quantitated using the XTT dye method to assess mitochondrial function. Results were expressed as a ratio of the IC50 for doxorubicin alone to the IC50 for doxorubicin plus MDR inhibitor. IC50 values are expressed in nM. In all assays the intrinsic antiproliferative or cytotoxicity activity of the MDR inhibitors was also determined for HL60/ADR cells.

Compound | MDR Ratio 1.0 μM Cpd. [1] | MDR Ratio (2.5 μM) [1] | further results
CN(C(=O)N1CCCCC1C(=O)OC(CCc1ccccc1)CCc1ccccc1)c1ccc(S(=O)(=O)O)cc1 (stereo not drawn) [Compound 14, 4-(Methyl-(2-(1-phenethyl-3-phenyl-propoxycarbonyl)-piperidine-1-carbonyl)-amino)-benzenesulfonic acid] | 1.9 | 3.6 | –
CC(C)c1ccc(N(C)C(=O)N2CCCC[C@H]2C(=O)OC(CCCc2cccnc2)CCCc2cccnc2)cc1 [Compound 8, (S)-1-((4-Isopropylphenyl)-methyl-carbamoyl)-piperidine-2-carboxylic acid 4-pyridin-3-yl-1-(3-pyridin-3-yl-propyl)-butyl ester] | 1.9 | 3.6 | –
CN(C(=O)N1CCCC[C@H]1C(=O)OC(COCc1ccccc1)COCc1ccccc1)c1ccc(N2CCOCC2)cc1 [Compound 16, (S)-1-(Methyl-(4-morpholin-1-yl-phenyl)-carbamoyl)-piperidine-2-carboxylic acid 2-benzyloxy-1-(benzyloxy-methyl)-ethyl ester] | – | 10.7 | –
CN(C(=O)N1CCCC[C@H]1C(=O)OC(COCc1ccccc1)COCc1ccccc1)c1ccc(N2CCCCC2)cc1 [Compound 17, (S)-1-(Methyl-(4-piperidin-1-yl-phenyl)-carbamoyl)-piperidine-2-carboxylic acid 2-benzyloxy-1-(benzyloxy-methyl)-ethyl ester] | – | 10.7 | –
CN(C(=O)N1CCCC[C@H]1C(=O)OC(CCCc1cccnc1)CCCc1cccnc1)c1ccc(C(C)(C)C)cc1 [Compound 7, (S)-1-((4-Tert-butylphenyl)-methyl-carbamoyl)-piperidine-2-carboxylic acid 4-pyridin-3-yl-1-(3-pyridin-3-yl-propyl)-butyl ester] | 4.0 | 15.4 | –
COc1cccc2c1C(=O)c1c(O)c3c(c(O)c1C2=O)C[C@@](O)(C(=O)CO)C[C@@H]3O[C@H]1C[C@H](N)[C@H](O)[C@H](C)O1 [Dox, doxorubicin, reference compound] | – | – | IC50 [2]: 5 µM
COc1cc(OC(=O)N2CCCC[C@H]2C(=O)OC(CCCc2cccnc2)CCCc2cccnc2)cc(OC)c1OC [Compound 11, (S)-Piperidine-1,2-dicarboxylic acid 1-(3,4,5-trimethoxyphenyl) ester 2-(4-pyridin-3-yl-1-(3-pyridin-3-yl-propyl)-butyl) ester] | 1.2 | 2.3 | –
COc1cc(N(C)C(=O)N2CCCC[C@H]2C(=O)OC(CCCc2cccnc2)CCCc2cccnc2)cc(OC)c1OC [Compound 5, (S)-1-((3,4,5-Trimethoxyphenyl)-methyl-carbamoyl)-piperidine-2-carboxylic acid 4-pyridin-3-yl-1-(3-pyridin-3-yl-propyl)-butyl ester] | 2.8 | 7.8 | –
O=C(OC(COCc1ccccc1)COCc1ccccc1)[C@@H]1CCCCN1C(=O)Oc1cccc2ncccc12 [Compound 18, (S)-Piperidine-1,2-dicarboxylic acid 2-(2-benzyloxy-1-(benzyloxymethyl)-ethyl)ester 1-quinolin-5-yl ester] | – | 13.6 | –
(S)-1-((3,4,5-Trimethoxyphenyl)-methyl-carbamoyl)-piperidine-2-carboxylic acid 4-pyridin-1-yl-1-(3-pyridin-1-yl-propyl)-butyl ester [Compound 10] | – | – | IC50 Dox + 1 μM Cpd. ([1]; IC50 of doxorubicin in presence of 1 μM compound, L1210VMDRC.06 cells, 3 days): 400; IC50 Dox + 2.5 μM Cpd. ([1]; IC50 of doxorubicin in presence of 2.5 μM compound, L1210VMDRC.06 cells, 3 days): 85
CN(C(=O)N1CCCC[C@H]1C(=O)OC(CCCc1cccnc1)CCCc1cccnc1)c1cccc(C(F)(F)F)c1 [Compound 6, (S)-1-((3-Trifluoromethylphenyl)-methyl-carbamoyl)-piperidine-2-carboxylic acid 4-pyridin-3-yl-1-(3-pyridin-3-yl-propyl)-butyl ester] | – | 14.6 | –
O=C(OC(CCCc1cccnc1)CCCc1cccnc1)[C@@H]1CCCCN1C(=O)N1CCCCC1 [Compound 9, (S)-1-(Piperidine-1-carbonyl)-piperidine-2-carboxylic acid 4-pyridin-3-yl-1-(3-pyridin-3-yl-propyl)-butyl ester] | 1.3 | 6.9 | –
COc1cc(N(C)C(=O)N2CCCC[C@H]2C(=O)OC(CCc2ccccc2)CCc2ccccc2)cc(OC)c1OC [Compound 13, (S)-1-((3,4,5-Trimethoxyphenyl)-methyl-carbamoyl)-piperidine-2-carboxylic acid 1-(2-phenyl-ethyl)-3-phenyl-propyl ester] | 3.0 | 11.5 | –
